From ChEMBL document CHEMBL5236595, “JDQ443, a Structurally Novel, Pyrazole-Based, Covalent Inhibitor of KRASG12C for the Treatment of Solid Tumors” (J Med Chem, 2022)
In brackets after ≈: the same amount, converted by molar mass.

Assays:
[1] = test system: GTPase KRas (Homo sapiens), P01116 [G12C]; assay: Displacement of [acrylamide-2,3-3H2]-N-(3-fluoro-4-(2-methyl-3-(5-methyl-1H- indazole-4-yl)-1H-pyrrolo[ 2,3-b]pyridin-1-yl)-phenyl from KRAS G12C mutant (unknown origin) assessed as ratio of Kinact/Ki by competitive scintillation proximity assay
GTPase KRas = GTPase KRas (Homo sapiens, UniProt P01116, G12C); assay: Inhibition of KRAS G12C mutant in human NCI-H358 cells assessed as reduction in ERK phosphorylation incubated for 6 hrs by MSD assay; assay type: cell-based
[2] = test system: GTPase KRas (Homo sapiens), P01116 [G12C]; assay: In vivo target occupancy at KRAS G12C mutant in human MIA PaCa-2 cells xenografted mouse assessed as decrease in […] expression at 30 mg/kg, po after 24 hrs; assay type: functional, organism-based
[3] = Aqueous solubility of compound in pH 6.8; assay type: physicochemical; details: aqueous medium
[4] = AUC in human MIA PaCa-2 cells xenografted mouse at 30 mg/kg, po; assay type: ADME, organism-based; parameters: dose 30 mg/kg, route po; details: in vivo
[5] = test system: GTPase KRas (Homo sapiens), P01116 [G12C]; assay: In vivo target occupancy at KRAS G12C mutant in human MIA PaCa-2 cells xenografted mouse assessed as decrease in free KRAS G12C level at 30 mg/kg, po after 24 hrs; assay type: functional, organism-based
[6] = Cmax in human MIA PaCa-2 cells xenografted mouse at 30 mg/kg, po; assay type: ADME, organism-based; parameters: dose 30 mg/kg, route po; details: in vivo
[7] = test system: GTPase KRas (Homo sapiens), P01116 [G12C]; assay: In vivo target occupancy at KRAS G12C mutant in human MIA PaCa-2 cells xenografted mouse assessed as decrease in free KRAS G12C level at 30 mg/kg, po after 3 hrs; assay type: functional, organism-based
[8] = Lipophilicity, logD of compound at pH 7.4; assay type: physicochemical; details: buffer
[9] = test system: GTPase KRas (Homo sapiens), P01116 [G12C]; assay: In vivo target occupancy at KRAS G12C mutant in human MIA PaCa-2 cells xenografted mouse assessed as decrease in […] expression at 30 mg/kg, po after 3 hrs; assay type: functional, organism-based
[10] = Apparent permeability across apical to basolateral side in MDCK-MDR1 cells at 10 uM after 2 hrs by LC-MS/MS analysis; assay type: ADME, cell-based, Canis lupus familiaris; details: dog

Compound	Ratio [1] [mM⁻¹ s⁻¹]	IC50 (GTPase KRas) [nM]	solubility [3] [µM]	logD [8]	Papp A→B at 2 h, 10 µM [10] [×10⁻⁶ cm/s]	other results
C=CC(=O)Nc1ccc(-n2nc(C)c(-c3c(C)ccc4[nH]ncc34)c2C)cc1	0.1					
C=CC(=O)Nc1ccc(-n2nc(C(C)C)c(-c3c(C)ccc4[nH]ncc34)c2C)cc1	0.6					
C=CC(=O)N1CC2(CC(n3nc(C4CCCCC4)c(-c4c(Cl)ccc5[nH]ncc45)c3C)C2)C1	0.9	700				
C=CC(=O)N1CC2(CC(n3nc(-c4ccc5c(cnn5CCOC)c4)c(-c4c(Cl)c(C)cc5[nH]ncc45)c3C)C2)C1	190	8	10 (≈ 5.7 µg/mL)	4.5		Occ [2]: 100%; AUC [4]: 1.5 µM·h; Occ [5]: 100%; Cmax [6]: 600 nM; Occ [7]: 100%; Occ [9]: 100%
C=CC(=O)N1CC2(CC(n3nc(-c4ccc5nnccc5c4)c(-c4c(Cl)c(C)cc5[nH]ncc45)c3C)C2)C1	25		10 (≈ 5.24 µg/mL)	4.1	6.1	
C=CC(=O)N1CC2(CC(n3nc(-c4ccc5c(c4)ncn5C)c(-c4c(Cl)c(C)cc5[nH]ncc45)c3C)C2)C1	24	140	40 (≈ 21 µg/mL)	3.9	3.8	
